Laboratory results from ChEMBL document CHEMBL1201862, “PubChem BioAssay data set” (2004).
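1) Cells in 96-well plates. 2) Compound, 48 h, 5 concentrations. 3) Linear interpolation between surrounding doses. 4) Unreached endpoint = highest concentration. Here, GI50 denotes the concentration required for 50% inhibition of growth.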 Active and inactive are the calls of the source. Rule as the data show it: active = GI50 up to about 1.1 µM and inactive = higher.

Experiments:
Test in all cases: NCI-60 cell line screen, 48 h
LOX IMVI = test system: LOX IMVI
NCI-H226 = test system: NCI-H226
MDA-MB-231 = test system: MDA-MB-231
U-251 = test system: U-251
MDA-N = test system: MDA-N
SN12C = test system: SN12C
SF-295 = test system: SF-295
K562 = test system: K562
IGROV-1 = test system: IGROV-1
786-0 = test system: 786-0
SF-268 = test system: SF-268
MDA-MB-435 = test system: MDA-MB-435
SNB-75 = test system: SNB-75
HOP-62 = test system: HOP-62
RXF 393 = test system: RXF 393
RPMI-8226 = test system: RPMI-8226
UO-31 = test system: UO-31
SNB-19 = test system: SNB-19

Measured: GI50

O=C(CC(C(=O)c1ccco1)c1ccsc1)c1ccco1 (stereo not given)
inactive: LOX IMVI > 100 µM | NCI-H226 > 100 µM | MDA-MB-231 56.8 µM | U-251 > 100 µM | MDA-N > 100 µM | SN12C > 100 µM | SF-295 > 100 µM | K562 78 µM | IGROV-1 > 100 µM | 786-0 > 100 µM | SF-268 > 100 µM | MDA-MB-435 > 100 µM | SNB-75 47 µM | HOP-62 > 100 µM | RXF 393 48.9 µM | RPMI-8226 > 100 µM | UO-31 58.9 µM

C=CCN1CCC(O)(c2cc(C(=O)OCC)[nH]c2-c2cc(C)no2)C1 (stereo not given)
inactive: LOX IMVI > 100 µM | NCI-H226 > 100 µM | MDA-MB-231 > 100 µM | U-251 > 100 µM | MDA-N > 100 µM | SN12C > 100 µM | SF-295 > 100 µM | K562 > 100 µM | IGROV-1 > 100 µM | SNB-19 > 100 µM | 786-0 > 100 µM | SF-268 > 100 µM | MDA-MB-435 > 100 µM | SNB-75 > 100 µM | RXF 393 > 100 µM | RPMI-8226 > 100 µM | UO-31 > 100 µM

O=C1CCCCC1C(O)(C(F)(F)F)C(F)(F)Cl (stereo not given)
inactive: LOX IMVI > 10 µM | NCI-H226 > 10 µM | MDA-MB-231 > 10 µM | U-251 > 10 µM | MDA-N > 10 µM | SN12C > 10 µM | SF-295 > 10 µM | K562 > 10 µM | IGROV-1 > 10 µM | SNB-19 > 10 µM | 786-0 > 10 µM | SF-268 > 10 µM | MDA-MB-435 > 10 µM | SNB-75 > 10 µM | HOP-62 > 10 µM | RXF 393 > 10 µM | RPMI-8226 > 10 µM

CSc1nc(Cl)c(Br)c(Nc2cnc(O)nc2O)n1
inactive: LOX IMVI 19.4 µM | NCI-H226 20.1 µM | MDA-MB-231 13.6 µM | U-251 20.2 µM | MDA-N 23 µM | SN12C 18.2 µM | SF-295 18.9 µM | K562 26.9 µM | IGROV-1 6.34 µM | SNB-19 20.2 µM | 786-0 13.4 µM | MDA-MB-435 27.5 µM | SNB-75 17.7 µM | HOP-62 16.9 µM | RXF 393 22.1 µM | RPMI-8226 28.3 µM | UO-31 20.3 µM

CC(CO)CCNc1ncnc2c1ncn2CCC(=O)OC(C)(C)C (stereo not given)
inactive: LOX IMVI > 100 µM | NCI-H226 > 100 µM | MDA-MB-231 > 100 µM | MDA-N > 100 µM | SN12C > 100 µM | SF-295 > 100 µM | K562 > 100 µM | IGROV-1 > 100 µM | SNB-19 > 100 µM | 786-0 > 100 µM | SF-268 > 100 µM | MDA-MB-435 > 100 µM | SNB-75 > 100 µM | HOP-62 > 100 µM | RXF 393 > 100 µM | RPMI-8226 > 100 µM | UO-31 > 100 µM
